Results published in ChEMBL document CHEMBL4002566, “S-substituted 3,5-dinitrophenyl 1,3,4-oxadiazole-2-thiols and tetrazole-5-thiols as highly efficient antitubercular agents” (Eur J Med Chem, 2017).
In brackets after ≈: the same amount, converted by molar mass.

Columns and labels:
Staphylococcus aureus [1] = experiment: Antibacterial activity against methicillin-resistant Staphylococcus aureus HK5996/08 after 24 hrs by broth microdilution method; assay type: functional; conditions: HK5996/08, 24 h
Staphylococcus aureus [2] = experiment: Antibacterial activity against Staphylococcus aureus ATCC 6538 after 48 hrs by broth microdilution method; assay type: functional; conditions: ATCC 6538, 48 h
Enterococcus sp. [3] = experiment: Antibacterial activity against Enterococcus sp. HK14365/08 after 48 hrs by broth microdilution method; assay type: functional; conditions: HK14365/08, 48 h
Klebsiella pneumoniae [4] = experiment: Antibacterial activity against extended spectrum beta-lactamase producing Klebsiella pneumoniae HK14368/08 after 24 hrs by broth microdilution method; assay type: functional; conditions: HK14368/08, 24 h
A-431 = experiment: Cytotoxicity against human A431 cells assessed as cell viability after 48 hrs by MTS assay; assay type: cell-based; conditions: A-431, 48 h
Klebsiella pneumoniae [5] = experiment: Antibacterial activity against Klebsiella pneumoniae HK11750/08 after 24 hrs by broth microdilution method; assay type: functional; conditions: HK11750/08, 24 h
Pseudomonas aeruginosa [6] = experiment: Antibacterial activity against Pseudomonas aeruginosa ATCC 9027 after 24 hrs by broth microdilution method; assay type: functional; conditions: ATCC 9027, 24 h
[7] = Cytotoxicity against MDCK cells assessed as cell viability at 30 uM after 48 hrs by MTS assay relative to control; assay type: cell-based, Canis lupus familiaris; conditions: dog, read-out: Activity
Enterococcus sp. [8] = experiment: Antibacterial activity against Enterococcus sp. HK14365/08 after 24 hrs by broth microdilution method; assay type: functional; conditions: HK14365/08, 24 h
[9] = Cytotoxicity against human HuH7 cells assessed as cell viability at 30 uM after 48 hrs by MTS assay relative to control; assay type: cell-based, Huh-7; conditions: read-out: Activity
Escherichia coli [10] = experiment: Antibacterial activity against Escherichia coli ATCC 8739 after 48 hrs by broth microdilution method; assay type: functional; conditions: ATCC 8739, 48 h
Mycobacterium avium [11] = experiment: Antimycobacterial activity against Mycobacterium avium CNCTC My 330/88 after 14 days by micromethod; assay type: functional; conditions: CNCTC My 330/88, 336 h
Candida albicans [12] = experiment: Antifungal activity against Candida albicans ATCC 44859 after 24 hrs by broth microdilution method; assay type: functional; conditions: ATCC 44859, 24 h
[13] = test system: Mycobacterium tuberculosis; experiment: Antimycobacterial activity against Mycobacterium tuberculosis CNCTC My 331/88 after 14 days by micromethod; assay type: functional; conditions: CNCTC My 331/88, 336 h
Mycobacterium kansasii [14] = experiment: Antimycobacterial activity against Mycobacterium kansasii CNCTC My 235/80 after 14 days by micromethod; assay type: functional; conditions: CNCTC My 235/80, 336 h
Trichosporon asahii [15] = experiment: Antifungal activity against Trichosporon asahii 1188 after 24 hrs by broth microdilution method; assay type: functional; conditions: Trichosporon asahii, 1188, 24 h
Mycobacterium kansasii [16] = experiment: Antimycobacterial activity against Mycobacterium kansasii CNCTC My 235/80 after 21 days by micromethod; assay type: functional; conditions: CNCTC My 235/80, 504 h
Staphylococcus aureus [17] = experiment: Antibacterial activity against Staphylococcus aureus ATCC 6538 after 24 hrs by broth microdilution method; assay type: functional; conditions: ATCC 6538, 24 h
Aspergillus fumigatus [18] = experiment: Antifungal activity against Aspergillus fumigatus 231 after 24 hrs by broth microdilution method; assay type: functional; conditions: Aspergillus fumigatus, 231, 24 h
Staphylococcus aureus [19] = experiment: Antibacterial activity against methicillin-resistant Staphylococcus aureus HK5996/08 after 48 hrs by broth microdilution method; assay type: functional; conditions: HK5996/08, 48 h
Lichtheimia corymbifera [20] = experiment: Antifungal activity against Absidia corymbifera 272 after 24 hrs by broth microdilution method; assay type: functional; conditions: Lichtheimia corymbifera, 272, 24 h
[21] = test system: Staphylococcus epidermidis; experiment: Antibacterial activity against Staphylococcus epidermidis HK6996/08 after 48 hrs by broth microdilution method; assay type: functional; conditions: HK6996/08, 48 h
Mycobacterium kansasii [22] = experiment: Antimycobacterial activity against Mycobacterium kansasii 6509/96 clinical isolate after 7 days by micromethod; assay type: functional; conditions: 6509/96, 168 h
[23] = Cytotoxicity against human HepG2 cells assessed as cell viability at 30 uM after 48 hrs by MTS assay relative to control; assay type: cell-based; conditions: read-out: Activity
[24] = Cytotoxicity against human A431 cells assessed as cell viability at 30 uM after 48 hrs by MTS assay relative to control; assay type: cell-based, A-431; conditions: read-out: Activity
Pichia kudriavzevii [25] = experiment: Antifungal activity against Candida krusei E28 after 24 hrs by broth microdilution method; assay type: functional; conditions: E28, 24 h
HepG2 = experiment: Cytotoxicity against human HepG2 cells assessed as cell viability after 48 hrs by MTS assay; assay type: cell-based; conditions: HepG2, 48 h
[26] = test system: Trichophyton mentagrophytes; experiment: Antifungal activity against Trichophyton mentagrophytes 445 after 120 hrs by broth microdilution method; assay type: functional; conditions: Trichophyton mentagrophytes, 445, 120 h
[27] = test system: Mycobacterium tuberculosis; experiment: Antimycobacterial activity against Mycobacterium tuberculosis CNCTC My 331/88 after 21 days by micromethod; assay type: functional; conditions: CNCTC My 331/88, 504 h
Candida tropicalis [28] = experiment: Antifungal activity against Candida tropicalis 156 after 48 hrs by broth microdilution method; assay type: functional; conditions: Candida tropicalis, 156, 48 h
Lichtheimia corymbifera [29] = experiment: Antifungal activity against Absidia corymbifera 272 after 48 hrs by broth microdilution method; assay type: functional; conditions: Lichtheimia corymbifera, 272, 48 h
Trichosporon asahii [30] = experiment: Antifungal activity against Trichosporon asahii 1188 after 48 hrs by broth microdilution method; assay type: functional; conditions: Trichosporon asahii, 1188, 48 h
Aspergillus fumigatus [31] = experiment: Antifungal activity against Aspergillus fumigatus 231 after 48 hrs by broth microdilution method; assay type: functional; conditions: Aspergillus fumigatus, 231, 48 h
Huh-7 = experiment: Cytotoxicity against human HuH7 cells assessed as cell viability after 48 hrs by MTS assay; assay type: cell-based; conditions: Huh-7, 48 h
Candida albicans [32] = experiment: Antifungal activity against Candida albicans ATCC 44859 after 48 hrs by broth microdilution method; assay type: functional; conditions: ATCC 44859, 48 h
Nakaseomyces glabratus [33] = experiment: Antifungal activity against Candida glabrata 20/I after 24 hrs by broth microdilution method; assay type: functional
Mycobacterium kansasii [34] = experiment: Antimycobacterial activity against Mycobacterium kansasii 6509/96 clinical isolate after 14 days by micromethod; assay type: functional; conditions: 6509/96, 336 h
[35] = test system: Trichophyton mentagrophytes; experiment: Antifungal activity against Trichophyton mentagrophytes 445 after 72 hrs by broth microdilution method; assay type: functional; conditions: Trichophyton mentagrophytes, 445, 72 h
[36] = Selectivity index, ratio of IC50 for human HepG2 cells to MIC for Mycobacterium tuberculosis; assay type: toxicity; conditions: read-out: Selectivity Index
Candida tropicalis [37] = experiment: Antifungal activity against Candida tropicalis 156 after 24 hrs by broth microdilution method; assay type: functional; conditions: Candida tropicalis, 156, 24 h
MDCK = experiment: Cytotoxicity against MDCK cells assessed as cell viability after 48 hrs by MTS assay; assay type: cell-based; conditions: Canis lupus familiaris
[38] = test system: Staphylococcus epidermidis; experiment: Antibacterial activity against Staphylococcus epidermidis HK6996/08 after 24 hrs by broth microdilution method; assay type: functional; conditions: HK6996/08, 24 h
Mycobacterium kansasii [39] = experiment: Antimycobacterial activity against Mycobacterium kansasii CNCTC My 235/80 after 7 days by micromethod; assay type: functional; conditions: CNCTC My 235/80, 168 h
Nakaseomyces glabratus [40] = experiment: Antifungal activity against Candida glabrata 20/I after 48 hrs by broth microdilution method; assay type: functional
Escherichia coli [41] = experiment: Antibacterial activity against Escherichia coli ATCC 8739 after 24 hrs by broth microdilution method; assay type: functional; conditions: ATCC 8739, 24 h
Pseudomonas aeruginosa [42] = experiment: Antibacterial activity against Pseudomonas aeruginosa ATCC 9027 after 48 hrs by broth microdilution method; assay type: functional; conditions: ATCC 9027, 48 h
Mycobacterium avium [43] = experiment: Antimycobacterial activity against Mycobacterium avium CNCTC My 330/88 after 21 days by micromethod; assay type: functional; conditions: CNCTC My 330/88, 504 h
Mycobacterium kansasii [44] = experiment: Antimycobacterial activity against Mycobacterium kansasii 6509/96 clinical isolate after 21 days by micromethod; assay type: functional; conditions: 6509/96, 504 h
Pichia kudriavzevii [45] = experiment: Antifungal activity against Candida krusei E28 after 48 hrs by broth microdilution method; assay type: functional; conditions: E28, 48 h
Klebsiella pneumoniae [46] = experiment: Antibacterial activity against Klebsiella pneumoniae HK11750/08 after 48 hrs by broth microdilution method; assay type: functional; conditions: HK11750/08, 48 h
Klebsiella pneumoniae [47] = experiment: Antibacterial activity against extended spectrum beta-lactamase producing Klebsiella pneumoniae HK14368/08 after 48 hrs by broth microdilution method; assay type: functional; conditions: HK14368/08, 48 h

Compound: O=[N+]([O-])c1cc(-n2nnnc2SCc2ccc(Cl)c(Cl)c2)cc([N+](=O)[O-])c1
- MIC (Staphylococcus aureus [1]): 125 µM (≈ 53.4 µg/mL)
- MIC (Staphylococcus aureus [2]): 62 µM (≈ 26.5 µg/mL)
- MIC (Enterococcus sp. [3]): > 500 µM
- MIC (Klebsiella pneumoniae [4]): > 500 µM
- IC50 (A-431): > 30 µM
- MIC (Klebsiella pneumoniae [5]): > 500 µM
- MIC (Pseudomonas aeruginosa [6]): > 500 µM
- viability at 48 h, 30 µM [7]: 84%
- MIC (Enterococcus sp. [8]): > 500 µM
- viability at 48 h, 30 µM [9]: 137%
- MIC (Escherichia coli [10]): > 500 µM
- MIC (Mycobacterium avium [11]): 8 µM (≈ 3.42 µg/mL)
- MIC (Candida albicans [12]): > 500 µM
- MIC [13]: 0.25 µM (≈ 0.107 µg/mL)
- MIC (Mycobacterium kansasii [14]): 1 µM (≈ 0.427 µg/mL)
- MIC (Trichosporon asahii [15]): > 500 µM
- MIC (Mycobacterium kansasii [16]): 1 µM (≈ 0.427 µg/mL)
- MIC (Staphylococcus aureus [17]): 62 µM (≈ 26.5 µg/mL)
- MIC (Aspergillus fumigatus [18]): > 500 µM
- MIC (Staphylococcus aureus [19]): 125 µM (≈ 53.4 µg/mL)
- MIC (Lichtheimia corymbifera [20]): > 500 µM
- MIC [21]: 250 µM (≈ 107 µg/mL)
- MIC (Mycobacterium kansasii [22]): 0.25 µM (≈ 0.107 µg/mL)
- viability at 48 h, 30 µM [23]: 145%
- viability at 48 h, 30 µM [24]: 90%
- MIC (Pichia kudriavzevii [25]): > 500 µM
- IC50 (HepG2): > 30 µM
- MIC [26]: > 500 µM
- MIC [27]: 0.25 µM (≈ 0.107 µg/mL)
- MIC (Candida tropicalis [28]): > 500 µM
- MIC (Lichtheimia corymbifera [29]): > 500 µM
- MIC (Trichosporon asahii [30]): > 500 µM
- MIC (Aspergillus fumigatus [31]): > 500 µM
- IC50 (Huh-7): > 30 µM
- MIC (Candida albicans [32]): > 500 µM
- MIC (Nakaseomyces glabratus [33]): > 500 µM
- MIC (Mycobacterium kansasii [34]): 0.5 µM (≈ 0.214 µg/mL)
- MIC [35]: > 500 µM
- selectivity ratio [36]: > 120
- MIC (Candida tropicalis [37]): > 500 µM
- IC50 (MDCK): > 30 µM
- MIC [38]: 250 µM (≈ 107 µg/mL)
- MIC (Mycobacterium kansasii [39]): 0.5 µM (≈ 0.214 µg/mL)
- MIC (Nakaseomyces glabratus [40]): > 500 µM
- MIC (Escherichia coli [41]): > 500 µM
- MIC (Pseudomonas aeruginosa [42]): > 500 µM
- MIC (Mycobacterium avium [43]): 32 µM (≈ 13.7 µg/mL)
- MIC (Mycobacterium kansasii [44]): 1 µM (≈ 0.427 µg/mL)
- MIC (Pichia kudriavzevii [45]): > 500 µM
- MIC (Klebsiella pneumoniae [46]): > 500 µM
- MIC (Klebsiella pneumoniae [47]): > 500 µM
